Measured values as given in patent publication US20120035206A1, “PREPARATION AND APPLICATION OF NOVEL ANTIBACTERIAL AND ANTICANCER COMPOUNDS AND THEIR DERIVATIVES” (priority 2009, published 2012).
Converted amounts (≈) assume the structure as drawn.

Legend:
Type in all cases: cell-based
CRL-1435PC-3 = assay: In vitro anticancer MTT experiment; conditions: concentration 5 ug/ml, 48 h or 72 h, read-out: inhibition ratio CRL-1435PC-3
Description: (§1) In vitro anticancer experiments of 25 compounds as anti-bacterial and anti-cancer compounds in the patent were tested. In the test, 14 kinds of cancer cells were used as tested cancer cells. And the results obtained by MTT method were shown in table 2 (the inhibition ratio was obtained when the concentration was 5 ug/ml). Tested Cancer Cells: SGC7901, HTB-38HT-29, CRL-2233NU-398, CRL-1469PANC-1, B0192, HTB-131MDA-453, CRL-1435PC-3, FTC133, AS24391, HTB-95637. (Cancer cells were from Chinese Military Academy of Medical Sciences). Cells Culture: Culture solution was composed of RPMI 1640 medium, 10% (VAT) Fetal calf serum and 0.01% L-glutamine. Cultured cells were maintained at 37° C. in an incubator with 5% CO2. The cells at logarithmic growth phase were used in the experiment. MTT Experiment: Single cell suspension was obtained by digesting cells with 0.25% trypsin. The cells at logarithmic growth phase were collected and seeded in a 96-well plate at a concentration of 6000-7000 cells per well. After culturing for 12 h at 37° C. in the incubator with 5% CO2, the cells were again incubated with the tested compounds of various concentrations for 48 h or 72 h. Pure cultures and cells without drug were taken as blank reference and negative reference, and 8 Wells of each group were taken. Twenty microliter of MTT (5 mg/mL) was added to each well, and the mixed solutions were incubation for 4 h. The formazan product was dissolved by dimethyl sulfoxide (DMSO, 150 μL), and the optical density (O.D.) was read at 570 nm. The Inhibition Ratio was calculated by the following formula: Inhibition Ratio=(Anegative control−Asample)/(Anegative control−Ablank control)

L428 = assay: In vitro anticancer MTT experiment; conditions: Homo sapiens, L-428, concentration 5 ug/ml, 48 h or 72 h, read-out: inhibition ratio L428
Description: as §1

AS24391 = assay: In vitro anticancer MTT experiment; conditions: concentration 5 ug/ml, 48 h or 72 h, read-out: inhibition ratio AS24391
Description: as §1

B01092 = assay: In vitro anticancer MTT experiment; conditions: concentration 5 ug/ml, 48 h or 72 h, read-out: inhibition ratio B01092
Description: as §1

CRL-2233SNU-398 = assay: In vitro anticancer MTT experiment; conditions: concentration 5 ug/ml, 48 h or 72 h, read-out: inhibition ratio CRL-2233SNU-398
Description: as §1

L1210 = assay: In vitro anticancer MTT experiment; conditions: Mus musculus, concentration 5 ug/ml, 48 h or 72 h, read-out: inhibition ratio L1210
Description: as §1

HTB-95637 = assay: In vitro anticancer MTT experiment; conditions: concentration 5 ug/ml, 48 h or 72 h, read-out: inhibition ratio HTB-95637
Description: as §1

FTC 133 = assay: In vitro anticancer MTT experiment; conditions: Homo sapiens, concentration 5 ug/ml, 48 h or 72 h, read-out: inhibition ratio FTC 133
Description: as §1

HTB-131MDA-MB-453 = assay: In vitro anticancer MTT experiment; conditions: concentration 5 ug/ml, 48 h or 72 h, read-out: inhibition ratio HTB-131MDA-MB-453
Description: as §1

A375 = assay: In vitro anticancer MTT experiment; conditions: Homo sapiens, A-375, concentration 5 ug/ml, 48 h or 72 h, read-out: inhibition ratio A375
Description: as §1

CRL-1469PANC-1 = assay: In vitro anticancer MTT experiment; conditions: concentration 5 ug/ml, 48 h or 72 h, read-out: inhibition ratio CRL-1469PANC-1
Description: as §1

SGC7901 = assay: In vitro anticancer MTT experiment; conditions: Homo sapiens, SGC-7901, concentration 5 ug/ml, 48 h or 72 h, read-out: inhibition ratio SGC7901
Description: as §1

HTB-38HT-29 = assay: In vitro anticancer MTT experiment; conditions: concentration 5 ug/ml, 48 h or 72 h, read-out: inhibition ratio HTB-38HT-29
Description: as §1

HTB-94 = assay: In vitro anticancer MTT experiment; conditions: concentration 5 ug/ml, 48 h or 72 h, read-out: inhibition ratio HTB-94
Description: as §1

C. neoformans = assay: In vitro antibacterial (antifungal) test, two-fold dilution MIC; conditions: Cryptococcus neoformans, RPMI 1640, culture 2-7 days
Description: (§2) In vitro antibacterial experiments of 25 compounds as anti-bacterial and anti-cancer compounds in the patent were tested using 14 kinds of bacteria. Tested bacteria: C. albicans, C. tropicalis, C. neoformans, E. floccosum, M. gypseum, A. niger, S. schenekn, C. parapsilosis, C. glabrata, C. Krusei, Trichoderma, Gibberella, Setrosphaeria turcica, Fusarium Oxysporum Vasinfectum. (Bacteria were from the Dermatology Hospital of Chinese Academy of Medical Sciences, Nanjing, China.)
(§3) The Preparation of tested Bacteria solution was following: incubated Bacteria were added to 5 ml physiological saline, and then they were mashed and placed with ultrasound. The solution was fully mixed, and insoluble substances were removed. The treated solution was called the original bacterium solution. In the test, the bacteria concentration in the original bacterium solution was adjusted to […].
(§4) Tested Methods: the tested compounds were dissolved in dimethyl sulfoxide. and the solution was diluted with sterile distilled water. And the distilled solution was added to sterilized RPMI 1640 medium. The concentration of the compounds were adjusted to 256, 128, 64, 32, 16, 8, 4, 2, 1, 0.5, 0.25, 0.125 ug*ml-1. Then the adjusted solutions were inoculated with tested bacteria, and the tested systems were placed in the constant temperature oven to culture for 2-7 days. The concentration at which there was no growing of fungi was taken as the minimum inhibitory concentration (MIC).

S. schenekn = assay: as above; conditions: RPMI 1640, culture 2-7 days
Description: as §2, §3, §4

C. parapsilosis = assay: as above; conditions: Lodderomyces parapsilosis, RPMI 1640, culture 2-7 days
Description: as §2, §3, §4

[1] = tested on: Fusarium oxysporum vasinfectum; assay: as above; conditions: RPMI 1640, culture 2-7 days
Description: as §2, §3, §4

C. glabrata = assay: as above; conditions: Nakaseomyces glabratus, RPMI 1640, culture 2-7 days
Description: as §2, §3, §4

C. Krusei = assay: as above; conditions: Pichia kudriavzevii, RPMI 1640, culture 2-7 days
Description: as §2, §3, §4

C. albicans = assay: as above; conditions: Candida albicans, read-out: MIC C. albicas
Description: as §2, §3, §4

Terchoderma = assay: as above; conditions: Trichoderma, RPMI 1640, culture 2-7 days
Description: as §2, §3, §4

C. tropicalis = assay: as above; conditions: Candida tropicalis, RPMI 1640, culture 2-7 days
Description: as §2, §3, §4

E. floccosum = assay: as above; conditions: Epidermophyton floccosum, RPMI 1640, culture 2-7 days
Description: as §2, §3, §4

M. gypseum = assay: as above; conditions: Nannizzia gypsea, RPMI 1640, culture 2-7 days
Description: as §2, §3, §4

Setosphaeria turcica = assay: as above; conditions: Exserohilum turcicum, RPMI 1640, culture 2-7 days
Description: as §2, §3, §4

gibberella = assay: as above; conditions: RPMI 1640, culture 2-7 days
Description: as §2, §3, §4

Compound | inhibition at 5 µg/mL (L428) [%] | inhibition at 5 µg/mL (AS24391) [%] | inhibition at 5 µg/mL (B01092) [%] | inhibition at 5 µg/mL (L1210) [%] | inhibition at 5 µg/mL (FTC 133) [%] | inhibition at 5 µg/mL (A375) [%] | inhibition at 5 µg/mL (CRL-1469PANC-1) [%] | inhibition at 5 µg/mL (SGC7901) [%] | inhibition at 5 µg/mL (HTB-94) [%] | MIC (C. neoformans) [µg/mL] | MIC (S. schenekn) [µg/mL] | MIC (C. parapsilosis) [µg/mL] | MIC [1] [µg/mL] | MIC (C. glabrata) [µg/mL] | MIC (C. albicans) [µg/mL] | MIC (Terchoderma) [µg/mL] | MIC (C. tropicalis) [µg/mL] | MIC (E. floccosum) [µg/mL] | MIC (M. gypseum) [µg/mL] | MIC (Setosphaeria turcica) [µg/mL] | other results
Cc1ccc2c(c1)C(=O)/C(=C/Br)CS2 [Compound 8, (Z)-3-(bromomethylene)-6-methylthiochroman-4-one] | 44.2 | 40 | 39 | 84.6 | 75.6 | 37.9 | 47.9 | 60.6 | 56.7 | 8 (≈ 29.7 µM) | 32 (≈ 119 µM) | 32 (≈ 119 µM) | 64 (≈ 238 µM) | 64 (≈ 238 µM) | 32 (≈ 119 µM) | 32 (≈ 119 µM) | 64 (≈ 238 µM) | 64 (≈ 238 µM) | 64 (≈ 238 µM) | 64 (≈ 238 µM) | inhibition at 5 µg/mL (CRL-1435PC-3): 50.6%; inhibition at 5 µg/mL (CRL-2233SNU-398): 46.4%; inhibition at 5 µg/mL (HTB-95637): 56.4%; inhibition at 5 µg/mL (HTB-131MDA-MB-453): 47.3%; inhibition at 5 µg/mL (HTB-38HT-29): 54.9%; MIC (C. Krusei): 64 µg/mL (≈ 238 µM)
O=C1/C(=C/Cl)SCc2ccc(F)cc21 [Compound 15, (Z)-3-(chloromethylene)-6-fluoroisothiochroman-4-one] | 55.4 | 46.8 | 49.5 | 80.9 | 45.9 | 60.2 | 36.8 | 47.6 | 60.5 | 32 (≈ 140 µM) | 32 (≈ 140 µM) | 16 (≈ 70 µM) | 8 (≈ 35 µM) | 4 (≈ 17.5 µM) | 8 (≈ 35 µM) | 32 (≈ 140 µM) | 4 (≈ 17.5 µM) | 8 (≈ 35 µM) | 4 (≈ 17.5 µM) | 16 (≈ 70 µM) | inhibition at 5 µg/mL (CRL-2233SNU-398): 45%; inhibition at 5 µg/mL (HTB-131MDA-MB-453): 58%; inhibition at 5 µg/mL (HTB-38HT-29): 57%; MIC (gibberella): 16 µg/mL (≈ 70 µM); MIC (C. Krusei): 32 µg/mL (≈ 140 µM)
O=C1/C(=C/Cl)CSc2sccc21 [Compound 19, (Z)-5-(chloromethylene)-5,6-dihydro-4H-thieno[2,3-b]thiopyran-4-one] | 47.5 | 53 | 36.5 | 76.4 | 54.8 | 46.2 | 67.9 | 56.4 | 48.5 | 16 (≈ 73.8 µM) | 32 (≈ 148 µM) | 4 (≈ 18.5 µM) | 16 (≈ 73.8 µM) | 32 (≈ 148 µM) | 8 (≈ 36.9 µM) | 4 (≈ 18.5 µM) | 16 (≈ 73.8 µM) | 4 (≈ 18.5 µM) | 16 (≈ 73.8 µM) | 32 (≈ 148 µM) | inhibition at 5 µg/mL (CRL-1435PC-3): 41.3%; inhibition at 5 µg/mL (HTB-131MDA-MB-453): 47.9%; MIC (gibberella): 8 µg/mL (≈ 36.9 µM)
O=C1/C(=C\Cl)SCc2ccccc21 [Compound 26, (E)-3-(chloromethylene)isothiochroman-4-one] | – | – | – | – | – | – | – | – | – | 4 (≈ 19 µM) | 8 (≈ 38 µM) | 32 (≈ 152 µM) | 4 (≈ 19 µM) | 16 (≈ 75.9 µM) | 2 (≈ 9.49 µM) | 8 (≈ 38 µM) | 8 (≈ 38 µM) | 4 (≈ 19 µM) | 16 (≈ 75.9 µM) | 2 (≈ 9.49 µM) | MIC (gibberella): 16 µg/mL (≈ 75.9 µM); MIC (C. Krusei): 8 µg/mL (≈ 38 µM)
Cc1ccc(SC2/C(=C/Cl)CSc3ccc(C)cc32)cc1 (centres unmarked) [Compound 29, (E)-3-(chloromethylene)-6-methyl-4-(p-tolylthio)thiochroman] | 13.2 | 15.2 | 26.5 | 33.6 | 32.2 | 30.2 | 17.4 | 23.3 | 23.4 | – | 32 (≈ 96.1 µM) | 32 (≈ 96.1 µM) | – | – | – | 64 (≈ 192 µM) | – | 64 (≈ 192 µM) | 64 (≈ 192 µM) | – | inhibition at 5 µg/mL (CRL-2233SNU-398): 21.5%; inhibition at 5 µg/mL (HTB-38HT-29): 19.2%; MIC (gibberella): 16 µg/mL (≈ 48.1 µM)
